Results: paper PMC11659602, “Discovering covalent cyclic peptide inhibitors of peptidyl arginine deiminase 4 (PADI4) using mRNA-display with a genetically encoded electrophilic warhead” (Communications Chemistry, 2024)
Values joined by “and” are separate entries in the source; they are usually repeats but may differ in a detail not shown here. Equal values may be shown once. Read-outs that look alike come from different tables or passages of the source. Where a SMILES comes first, the peptide text is derived from it. Bridges are numbered along the chain shown (N, C = ends). [ ]: non-standard residue; d: D form. Orn(fluoroacetimidoyl) = N=C(CF)NCCC[C@H](N)C(=O)O

Columns and labels:
[1] = target: T1, PADI4 (Homo sapiens, UniProt Q9UM07); assay: COLDER inhibition assay, BAEE substrate, with or without 1 h preincubation; type: biochemical; settings: for IC50: COLDER; for remaining activity at 0.003 µM: peptide 0.003 µM; for remaining activity at 0.01 µM: peptide 0.01 µM; for remaining activity at 0.03 µM: peptide 0.03 µM; for remaining activity at 0.1 µM: peptide 0.1 µM; for remaining activity at 0.3 µM: peptide 0.3 µM; for remaining activity at 1 µM: peptide 1 µM; for remaining activity at 3 µM: peptide 3 µM; for remaining activity at 10 µM: peptide 10 µM; for remaining activity at 30 µM: peptide 30 µM
T1 construct: His6; made in house
T1 sequence (Q9UM07 whole entry): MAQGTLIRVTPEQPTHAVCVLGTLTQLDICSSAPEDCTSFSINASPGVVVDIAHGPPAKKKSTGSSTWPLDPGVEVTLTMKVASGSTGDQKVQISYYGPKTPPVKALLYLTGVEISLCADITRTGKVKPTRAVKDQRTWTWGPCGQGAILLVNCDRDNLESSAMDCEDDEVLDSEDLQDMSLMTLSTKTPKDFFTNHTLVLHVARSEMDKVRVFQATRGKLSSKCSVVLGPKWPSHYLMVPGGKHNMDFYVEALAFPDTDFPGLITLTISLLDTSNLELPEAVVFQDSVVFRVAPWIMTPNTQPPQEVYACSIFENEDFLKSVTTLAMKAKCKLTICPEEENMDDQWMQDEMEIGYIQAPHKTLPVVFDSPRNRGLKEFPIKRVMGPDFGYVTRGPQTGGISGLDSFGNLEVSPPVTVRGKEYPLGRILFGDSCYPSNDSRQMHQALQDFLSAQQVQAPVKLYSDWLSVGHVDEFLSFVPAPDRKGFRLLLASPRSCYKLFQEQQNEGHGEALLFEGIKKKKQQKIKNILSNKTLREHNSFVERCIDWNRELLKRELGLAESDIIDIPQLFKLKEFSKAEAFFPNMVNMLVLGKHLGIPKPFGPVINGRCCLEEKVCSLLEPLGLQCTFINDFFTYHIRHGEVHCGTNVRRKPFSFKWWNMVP
Experimental: PADI4 citrullination activity was analysed using the COLDER assay in 96-well plates. Peptide dilutions were prepared from a 500 µM stock, to give a 10 times concentrated dilution series (500 µM, 300 µM, 100 µM, 30 µM, 10 µM, 3 µM, 1 µM, 0.3 µM, 0.1 µM and 0.03 µM) in COLDER buffer (50 mM HEPES, 150 mM NaCl and 2 mM DTT, pH 7.5) containing 1% DMSO. In triplicate, each was diluted 10-fold further when mixed with 50 nM His-PADI4, 0.6 mg/mL BSA and 10 mM CaCl2, in COLDER buffer. With or without one hour of incubation, 10 mM N^α-Benzoyl-L-arginine ethyl ester hydrochloride (BAEE, Merck) was added to initiate the reaction (50 µL final volume). After 30 min at rt, EDTA (50 mM final concentration) was used to quench the reaction and 200 µL of COLDER solution containing 20 mM Diacetyl monoxime/2,3-butanedione monoxime (Merck), 0.5 mM Thiosemicarbazide (Acros Organics), 2.25 M H3PO4, 4.5 M H2SO4 and 1.5 mM NH4Fe(SO4)2.12H2O was added to each well. Samples were incubated for 20 min at 95 °C before measuring absorbance at 540 nm on a CLARIOstar Plus (BMG LABTECH). Data analysis was performed with GraphPad Prism. Data are presented as the average ± standard error of the mean from at least two independent replicates.

[2] = target: T1, PADI4; assay: Incubation time-dependent COLDER assay IC50(t), Krippendorff fit; type: biochemical; settings: for IC50: replicates, read-out: apparent IC50; for Ki / kinact: Krippendorff fit of IC50 vs time
Experimental: To determine KI and kinact of covalent peptide inhibitors, COLDER assays were used[52]. Peptide dilutions were prepared using 5-fold dilutions from 500 µM and 300 µM to 0.8 µM and 2.4 µM, respectively, at 1% DMSO in COLDER buffer (50 mM HEPES, 150 mM NaCl and 2 mM DTT, pH 7.5). The 9 peptide dilutions were added to a 96-well plate, alongside a 1% DMSO control. An equal volume of 10 mM BAEE was added to each well and the solution was homogenised by pipette mixing. This was mixed with 50 nM His-PADI4, 0.6 mg/mL BSA and 10 mM CaCl2, in COLDER buffer, to bring the final volume to 300 µL in each well. Alternatively, His-PAD1 (100 nM) /His-PADI2 (100 nM) /His-PADI3 (250 nM) were used. For assays with PADI1 and PADI3, 10 mM N^α-benzoyl-L-arginine methyl […] (BAME) was used as the substrate instead of BAEE[48],[58],[59]. At 15-minute intervals, for 5 timepoints, 50 µL of solution was taken from each well and quenched with 10 µL EDTA (300 mM). 200 µL of COLDER solution containing 20 mM diacetyl monoxime/2,3-butanedione monoxime (Merck), 0.5 mM thiosemicarbazide (Acros Organics), 2.25 M H3PO4, 4.5 M H2SO4 and 1.5 mM NH4Fe(SO4)2.12H2O was added to each well. Samples were incubated for 20 min at 95 °C before measuring absorbance at 540 nm on a CLARIOstar Plus (BMG LABTECH). IC50 values for each time point were determined using non-linear regression with GraphPad Prism. Incubation time–dependent potency IC50(t) against incubation time was fitted to the Krippendorff equation (below) to determine KI and kinact using a Python script[53],[59]. […] IC50t=KI1+S/KM⋅2−2e^−ηIC50⋅kinact⋅t/ηIC50⋅kinact⋅t−1 WhereηIC50=IC50t/KI1+S/KM+IC50t

[3] = target: T1, PADI4; assay: Surface plasmon resonance (SPR), single cycle kinetics; type: binding; settings: for Ki: k-1/k+1
Experimental: S8. Surface plasmon resonance (SPR)
Using a Biacore S200 (GE Healthcare), biotinylated His-PADI4 (80 nM) was immobilised on a CAP chip (GE Healthcare) to a response unit of approx. 3000. At 25 °C, single cycle kinetics mode was used with 5 samples of a 3-fold dilution series of peptides PADI4_3_H4(2), cP4_2, […]
mM HEPES, 150 mM NaCl, 10 mM CaCl2, 0.05% Tween-20, 0.1% DMSO (pH 7.5). After each cycle, regeneration of the chip was carried out as per the manufacturer’s protocol. Data were analysed with the Biacore S200 Evaluation Software, each in triplicate. Warhead-containing peptides were analysed using the two-state reaction model, with the rate constant for the reverse second step (k-2) set to zero. The equilibrium constant of the reversible binding step, Ki, was calculated as the ratio of k-1/k+1 and the rate constant of the irreversible chemical step, kinact, as k+2. The Arg4, Cit4 and Me4 peptides were fitted using a 1:1 binding model. […]

[4] = 1 h preincubation of peptide and PADI4, 10 mM CaCl2, read-out: IC50 Values 1 h preincubation
[5] = T=0, values starred, read-out: PADI4 activity normalised to 0.1% DMSO
[6] = T=1, read-out: PADI4 activity normalised to 0.1% DMSO
[7] = T=0, read-out: PADI4 activity normalised to 0.1% DMSO
[8] = each replicate, read-out: k2 / kinact
[9] = two-state reaction model, k+2, read-out: SPR kinact (converted)
[10] = 1 h, T=1 (1 h preincubation), read-out: PADI4 activity, dose-response data of Figure S15 (individual replicates)
[11] = T=0 (no preincubation), read-out: PADI4 activity, dose-response data of Figure S15 (individual replicates)

Row | Compound | IC50 [1, 4] [µM] | remaining activity at 0.003 µM [1, 5] [%] | remaining activity at 0.003 µM [1, 6] [%] | remaining activity at 0.01 µM [1, 5] [%] | remaining activity at 0.1 µM [1, 7] [%] | remaining activity at 1 µM [1, 7] [%] | remaining activity at 3 µM [1, 7] [%] | remaining activity at 10 µM [1, 7] [%] | kinact/KI [2] [M⁻¹ s⁻¹] | IC50 ([2]; 15 mins) | IC50 ([2]; 30 mins) | IC50 ([2]; 45 mins) | IC50 ([2]; 60 mins) | IC50 ([2]; 75 mins) | Ki [2] [µM] | kinact [2] [s⁻¹] | kinact/KI [3] [M⁻¹ s⁻¹] | kinact [3, 8] [s⁻¹] | kinact [3, 9] [s⁻¹] | Ki ([3]; two-state reaction model) [µM] | further results
1 | N=C(N)NCCC[C@@H]1NC(=O)[C@H](Cc2ccc(O)cc2)NC(=O)[C@H](Cc2c[nH]cn2)NC(=O)[C@H](CCCNC(=N)CF)NC(=O)[C@H](CC(=O)O)NC(=O)[C@H](CCCNC(=N)N)NC(=O)[C@@H](Cc2ccc(O)cc2)NC(=O)CSC[C@@H](C(=O)NCC(N)=O)NC(=O)[C@H](Cc2ccc(O)cc2)NC(=O)[C@H](CCCCN)NC(=O)[C@@H]2CCCN2C(=O)[C@H](Cc2c[nH]cn2)NC1=O [PADI4_3_H4(2), yRD(2)HYRHPKYCG] ({CH2CO}-[dY]RD[Orn(fluoroacetimidoyl)]HYRHPKYCG-NH2; thioether N-12) | 0.065 ± 0.007 | 103 | 102 | 100 | 101 | 77.4 | 41.2 | 18.1 | 2480 | 5.47 µM and 4.15 µM and 5.26 µM | 2.46 µM and 1.82 µM and 2 µM | 1.86 µM and 1.33 µM and 1.52 µM | 1.43 µM and 1.06 µM and 1.16 µM | 1.24 µM and 1.01 µM and 1.09 µM | 1.1 ± 0.2 | 0.00267 | 68000 | 0.001 | 0.00102 | 0.015 ± 0.002 | remaining activity at 0.01 µM [1, 6]: 83.7%; remaining activity at 0.03 µM [1, 7]: 102%; remaining activity at 0.03 µM [1, 6]: 82.9%; remaining activity at 0.1 µM [1, 6]: 29%; remaining activity at 0.3 µM [1, 7]: 96.2%; k2 / kinact ([3]; each replicate, listed as P4_3_H4(2)): 0.0013 s⁻¹
2 | CC(C)[C@@H]1NC(=O)[C@@H](Cc2ccc(O)cc2)NC(=O)CSC[C@@H](C(=O)NCC(N)=O)NC(=O)[C@H](Cc2ccc(O)cc2)NC(=O)[C@H](CCCCN)NC(=O)[C@H](Cc2c[nH]c3ccccc23)NC(=O)[C@H](CCC(=O)O)NC(=O)[C@H](CCCCN)NC(=O)[C@H](CCCNC(=N)CF)NC(=O)[C@H](CO)NC(=O)[C@H](Cc2ccc(O)cc2)NC1=O [cP4_7, yVYS(2)KEWKYCG] ({CH2CO}-[dY]VYS[Orn(fluoroacetimidoyl)]KEWKYCG-NH2; thioether N-11) | 0.16 ± 0.02 | 99.1 | 99.2 | 99.2 | 100 | 93.8 | 79 | 49.3 | 300 | 27.7 µM and 48.2 µM and 40.3 µM | 12.5 µM and 21.4 µM and 18.5 µM | 8.85 µM and 10 µM and 8.94 µM | 6.22 µM and 7.03 µM and 7.47 µM | 5.35 µM and 5.67 µM and 6.53 µM | 4.3 ± 1.1 | 0.00128 | 5720 | 0.0086 | 0.00917 | 1.6 ± 0.1 | IC50 ([1]; no preincubation of peptide and PADI4, 10 mM CaCl2, read-out: IC50 Values 0 h preincubation): 8 ± 1.2 µM; remaining activity at 30 µM [1, 7]: 20.9%; k2 / kinact ([3]; each replicate): 0.0094 s⁻¹
3 | CC[C@H](C)[C@@H]1NC(=O)[C@H](CCCNC(=N)N)NC(=O)[C@H](Cc2ccc(O)cc2)NC(=O)[C@H](CCCNC(=N)N)NC(=O)[C@H](CCC(=O)O)NC(=O)[C@H](CCCNC(=N)CF)NC(=O)[C@H](CC(N)=O)NC(=O)[C@H](CC(C)C)NC(=O)[C@@H](Cc2ccc(O)cc2)NC(=O)CSC[C@@H](C(=O)NCC(N)=O)NC(=O)[C@H](CO)NC1=O [cP4_18] ({CH2CO}-[dY]LN[Orn(fluoroacetimidoyl)]ERYRISCG-NH2; thioether N-11) | 0.18 |  |  |  |  |  |  |  |  |  |  |  |  |  |  |  |  | 0.0027 | 0.00317 | 0.81 ± 0.08 | remaining activity at 0.003 µM [1, 10]: 101%; remaining activity at 0.01 µM [1, 10]: 99.7%; remaining activity at 0.03 µM [1, 10]: 95.4%; remaining activity at 0.1 µM [1, 10]: 77.6%; remaining activity at 0.3 µM [1, 10]: 35.4%; remaining activity at 1 µM [1, 10]: 10%; remaining activity at 0.003 µM [1, 11]: 106%; remaining activity at 0.01 µM [1, 11]: 108%; remaining activity at 0.03 µM [1, 11]: 107%; remaining activity at 0.1 µM [1, 11]: 110%; remaining activity at 0.3 µM [1, 11]: 107%; remaining activity at 1 µM [1, 11]: 102%; remaining activity at 3 µM [1, 11]: 94.6%; remaining activity at 10 µM [1, 11]: 64.3%; remaining activity at 30 µM [1, 11]: 31.1%; remaining activity at 50 µM ([1]; T=0 (no preincubation), peptide 50 µM, read-out: PADI4 activity, dose-response data of Figure S15 (individual replicates)): 21.4%; k2 / kinact ([3]; each replicate): 0.0019 s⁻¹
